Test system: MDA-MB-231 cells
Assay: Cell viability/cell growth, cells re-treated every 48 hours
Assay type: cell-based
Conditions: triple negative breast cancer cells
Procedure: MDA-MB-231 cells were plated on a 96-well plate at 10,000 cells per well to evaluate the effects of BSA alone, conjugated DHA-BSA, Liposomal DHA, and a ghost liposome on cell viability. The cells were re-treated every 48 hours. […] All treatments were compared to the cell/media control. The ghost had no effect on cell viability.

CC/C=C\C/C=C\C/C=C\C/C=C\C/C=C\C/C=C\CCC(=O)O [DHA, Docosahexanoic acid]
concentration that inhibits cell growth with comparable effect: 25 to 50 µM

Reference: patent US10272041B2, “Acid stable liposomal compositions and methods for producing the same” (The Penn State Research Foundation, priority 2013, dated 2019)
